We go through 25 compounds from PubChem BioAssay AID256 (DTP/NCI, 2004).

The test system of the assay is CD2F1 mice, L1210 leukemia ip, survival T/C. Kind of assay: NCI In Vivo Anticancer Drug Screen. Data for tumor model L1210 Leukemia (intraperitoneal) in CD2F1 (CDF1) mice. The following applies: endpoint: mean survival time, higher = longer survival. The method, boiled down:
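Activity against a transplanted murine tumor was judged by comparing the compound group with a vehicle group. The outcome in the treated animals was divided by that in the controls.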

[1] abbreviates: dose: 100.0 mg/kg/injection, schedule: Q01DX009 (ip), vehicle: saline with Tween-80.
The mark [2] stands for this setting: dose: 100.0 mg/kg/injection, schedule: Q04DX003 (ip), vehicle: acetone.
Where [3] appears, read: dose: 200.0 mg/kg/injection, schedule: Q04DX003 (ip), vehicle: saline with Tween-80.
[4] abbreviates: dose: 400.0 mg/kg/injection, schedule: Q01DX009 (ip), vehicle: saline with Tween-80.
Where [5] appears, read: dose: 100.0 mg/kg/injection, schedule: Q01DX001 (ip), vehicle: saline with Tween-80.
Setting [6] is: dose: 200.0 mg/kg/injection, schedule: Q01DX001 (ip), vehicle: saline with Tween-80.
Setting [7] is: dose: 400.0 mg/kg/injection, schedule: Q01DX001 (ip), vehicle: saline with Tween-80.
Setting [8] is: dose: 100.0 mg/kg/injection, schedule: Q01DX001 (ip), vehicle: saline.
[9] abbreviates: dose: 200.0 mg/kg/injection, schedule: Q01DX001 (ip), vehicle: saline.
Where [10] appears, read: dose: 100.0 mg/kg/injection, schedule: Q04DX003 (ip), vehicle: saline with Tween-80.
[11] abbreviates: dose: 200.0 mg/kg/injection, schedule: Q01DX009 (ip), vehicle: saline with Tween-80.
[12] abbreviates: dose: 400.0 mg/kg/injection, schedule: Q04DX003 (ip), vehicle: saline with Tween-80.
Where [13] appears, read: dose: 400.0 mg/kg/injection, schedule: Q04DX003 (ip), vehicle: saline.
Setting [14] is: dose: 400.0 mg/kg/injection, schedule: Q01DX001 (ip), vehicle: saline.
Where [15] appears, read: dose: 100.0 mg/kg/injection, schedule: Q04DX003 (ip), vehicle: saline.
Setting [16] is: dose: 200.0 mg/kg/injection, schedule: Q04DX003 (ip), vehicle: saline.
Setting [17] is: dose: 100.0 mg/kg/injection, schedule: Q04DX002 (ip), vehicle: saline with Tween-80.
Setting [18] is: dose: 200.0 mg/kg/injection, schedule: Q04DX002 (ip), vehicle: saline with Tween-80.
[19] abbreviates: dose: 400.0 mg/kg/injection, schedule: Q04DX002 (ip), vehicle: saline with Tween-80.

Several values for one entry are separate records, joined by “and”; a condition that tells them apart may be missing. Equal entries are not always repeated. Inconclusive results and toxic doses are left out.

With `CCCCCCCCCCCCCCCC(=O)N1CCCN(C(=O)CCCCCCCCCCCCCCC)C1`, the T/C (dose: 75.0 mg/kg/injection, schedule: Q04DX003 (ip), vehicle: saline) was 89 % of control; the T/C (dose: 150.0 mg/kg/injection, schedule: Q04DX003 (ip), vehicle: saline) was 89 % of control; the T/C (dose: 300.0 mg/kg/injection, schedule: Q04DX003 (ip), vehicle: saline) is 103 % of control.
As to `CCCCS(=O)CC(CO)NC(=O)/C=C/c1c(C)[nH]c(=O)[nH]c1=O` (stereo not given), the T/C (dose: 0.63 mg/kg/injection, schedule: Q01DX009 (ip), vehicle: water) is 115 % of control and 105 % of control; the T/C (dose: 1.25 mg/kg/injection, schedule: Q01DX009 (ip), vehicle: water) is 112 % of control; the T/C (dose: 2.5 mg/kg/injection, schedule: Q01DX009 (ip), vehicle: water) is 118 % of control and 121 % of control; the T/C (dose: 5.0 mg/kg/injection, schedule: Q01DX009 (ip), vehicle: water) was 116 % of control; the T/C (dose: 10.0 mg/kg/injection, schedule: Q01DX009 (ip), vehicle: water) was 98 % of control.
Consider `Cc1cccc2c1CCC(OC(=O)c1cc([N+](=O)[O-])cc([N+](=O)[O-])c1)C2` (stereo not given), for which the T/C under setting [1] is 92 % of control; the T/C under setting [2] was 98 % of control; the T/C (dose: 200.0 mg/kg/injection, schedule: Q04DX003 (ip), vehicle: acetone) is 108 % of control; the T/C under setting [3] is 89 % of control; the T/C under setting [4] was 97 % of control; the T/C (dose: 400.0 mg/kg/injection, schedule: Q04DX003 (ip), vehicle: acetone) was 101 % of control.
Regarding `CCCCCCCCSCC(CSCCCCCCCC)(CSCCCCCCCC)CSCCCCCCCC`, the T/C runs as follows: under setting [5], 101 % of control; under setting [6], 93 % of control; under setting [7], 93 % of control.
Consider `CCC1OCC(C(Cl)CCl)O1` (stereo not given), for which the T/C was 94 % of control and 101 % of control (dose: 12.5 mg/kg/injection, schedule: Q01DX009 (ip), vehicle: Klucel (hydroxypropylcellulose) (HPC)); 99 % of control and 102 % of control (dose: 25.0 mg/kg/injection, schedule: Q01DX009 (ip), vehicle: Klucel (hydroxypropylcellulose) (HPC)); 95 % of control and 96 % of control (dose: 50.0 mg/kg/injection, schedule: Q01DX009 (ip), vehicle: Klucel (hydroxypropylcellulose) (HPC)); 94 % of control and 107 % of control (dose: 100.0 mg/kg/injection, schedule: Q01DX009 (ip), vehicle: Klucel (hydroxypropylcellulose) (HPC)); 90 % of control and 91 % of control (dose: 200.0 mg/kg/injection, schedule: Q01DX009 (ip), vehicle: Klucel (hydroxypropylcellulose) (HPC)); 87 % of control (dose: 400.0 mg/kg/injection, schedule: Q01DX009 (ip), vehicle: Klucel (hydroxypropylcellulose) (HPC)).
On to `CC(=O)Oc1ccccc1C(CC(C)C)OC(C)=O` (stereo not given), for which the T/C reads like this: under setting [8], 96 % of control; under setting [9], 96 % of control.
`O=C(CF)[O][Sb]([O]C(=O)CF)([c]1ccccc1)([c]1ccccc1)[c]1ccccc1`: the T/C (dose: 5.0 mg/kg/injection, schedule: Q01DX009 (ip), vehicle: saline with Tween-80) is 105 % of control and the T/C (dose: 10.0 mg/kg/injection, schedule: Q01DX009 (ip), vehicle: saline with Tween-80) was 108 % of control.
Regarding `CC[n+]1ccc(Cc2ccc([N+](=O)[O-])cc2)cc1`, for the setting “dose: 100.0 mg/kg/injection, schedule: Q04DX003 (ip), vehicle: Klucel (hydroxypropylcellulose) (HPC)”, the T/C is 105 % of control.
Regarding `Nc1nc(N)nc(N)n1`, the T/C by setting is: under setting [1], 95 % of control; under setting [10], 97 % of control; under setting [11], 94 % of control; under setting [3], 105 % of control; under setting [4], 95 % of control; under setting [12], 97 % of control. In addition, under “dose: 800.0 mg/kg/injection, schedule: Q01DX009 (ip), vehicle: saline with Tween-80”, the T/C is 90 % of control.
As to `COC(OC)c1ccc(Cl)nc1`, the T/C reads like this: under setting [5], 98 % of control; under setting [1], 96 % of control; under setting [6], 101 % of control; under setting [11], 94 % of control; under setting [7], 101 % of control; under setting [4], 92 % of control.
In the case of `CC(CCOP(=O)(N(CCCl)CCCl)N1CC1)OCc1ccccc1` (stereo not given), the T/C by setting is: (dose: 22.0 mg/kg/injection, schedule: Q01DX001 (ip), vehicle: other) 108 % of control; (dose: 33.0 mg/kg/injection, schedule: Q01DX001 (ip), vehicle: other) 111 % of control; (dose: 50.0 mg/kg/injection, schedule: Q01DX001 (ip), vehicle: other) 153 % of control.
With `CCN(CCNc1ccc(C)c2sc3ccccc3c(=O)c12)CC(C)(C)O`, the T/C is, setting by setting: under setting [9], 112 % of control; under setting [13], 174 % of control.
Take `COc1ccc2c(c1)C1(C)CCCC(C#N)=C1CC2` (stereo not given): the T/C is, setting by setting: under setting [8], 96 % of control; under setting [9], 96 % of control; under setting [14], 92 % of control.
Consider `Cc1ccc(C2(O)c3ccccc3C(=O)N2c2ccccc2C)cc1` (stereo not given), for which the T/C is 100 % of control under setting [1]; 104 % of control under setting [10]; 93 % of control under setting [11]; 104 % of control under setting [3]; 102 % of control under setting [4]; 106 % of control under setting [12].
On to `CC(C)(C)N1CCCC1`, for which, under setting [2], the T/C was 96 % of control.
As for `NCc1ncn[nH]1`, the T/C is, setting by setting: under setting [15], 100 % of control; under setting [16], 96 % of control.
Turning to `CN(C)c1n[nH]c(N)n1`, the T/C was 97 % of control (dose: 76.0 mg/kg/injection, schedule: Q04DX003 (ip), vehicle: saline); 101 % of control (dose: 115.0 mg/kg/injection, schedule: Q04DX003 (ip), vehicle: saline); 104 % of control (dose: 174.0 mg/kg/injection, schedule: Q04DX003 (ip), vehicle: saline); 103 % of control (dose: 264.0 mg/kg/injection, schedule: Q04DX003 (ip), vehicle: saline); 105 % of control under setting [13].
Turning to `CCOC(=O)CC1(c2ccccc2)OC(=O)c2ccccc21` (stereo not given), the T/C was 102 % of control under setting [17], 87 % of control under setting [18] and 87 % of control under setting [19].
Regarding `CCOc1ccc(-n2c(=O)c(N=Nc3ccccc3)c(O)n(-c3ccc(C)cc3)c2=S)cc1`, the T/C reads like this: under setting [5], 97 % of control; under setting [6], 89 % of control.
For `Cc1ccc2c(c1)C(=NCCCN=C1C(=O)Nc3ccc(C)cc31)C(=O)N2`, the T/C by setting is: under setting [5], 103 % of control; under setting [6], 95 % of control; under setting [7], 98 % of control.
With `COc1ccc(/C=N\N=C\c2ccc(OC)c(OC)c2)cc1OC`, the T/C is, setting by setting: under setting [15], 105 % of control; under setting [16], 100 % of control; under setting [13], 94 % of control.
Consider `CCC12CCCN3CCc4c(n(c5ccccc45)C(O)(C(=O)OC)C1)C32` (stereo not given), for which the T/C is 108 % of control (dose: 5.0 mg/kg/injection, schedule: Q01DX001 (ip), vehicle: saline); 101 % of control (dose: 10.0 mg/kg/injection, schedule: Q01DX001 (ip), vehicle: saline); 102 % of control (dose: 20.0 mg/kg/injection, schedule: Q01DX001 (ip), vehicle: saline); 101 % of control (dose: 40.0 mg/kg/injection, schedule: Q01DX001 (ip), vehicle: saline).
In the case of `CN(CC(=O)O)C(=O)c1cc2ccccc2[nH]1`, the T/C is, setting by setting: (dose: 37.5 mg/kg/injection, schedule: Q04DX002 (ip), vehicle: saline with Tween-80) 101 % of control; (dose: 75.0 mg/kg/injection, schedule: Q04DX002 (ip), vehicle: saline with Tween-80) 89 % of control; (dose: 150.0 mg/kg/injection, schedule: Q04DX002 (ip), vehicle: saline with Tween-80) 93 % of control.
Consider `C#CC(CC)OC(=O)c1cc([N+](=O)[O-])cc([N+](=O)[O-])c1` (stereo not given), for which the T/C under setting [5] was 87 % of control; the T/C under setting [17] was 93 % of control; the T/C under setting [6] was 94 % of control; the T/C under setting [18] is 93 % of control; the T/C under setting [7] was 90 % of control; the T/C under setting [19] was 93 % of control.
On to `O=c1cc2c(=O)oc3cc(O)c(O)oc3c2c(O)c1O`, for which the T/C reads like this: under setting [8], 101 % of control; under setting [9], 98 % of control; under setting [14], 98 % of control.
